Assays:
MOLM-13 cells = assay: Cell proliferation assay (Cell Titer-Glo, 72 h); type: cell-based; settings: Homo sapiens, 72 h incubation, * = cytostatic 50%
Protocol: MOLM-13 cell line was purchased from the Leibniz Institute DSMZ (ACC 554). The cells were cultured according to recommendations in RPMI 1640 cell culture media with 20% FBS (DSMZ). Exponentially growing MOLM-13 cells were plated at 1250 cells per well in Corning 8804BC white 384-well assay plates and incubated overnight at 37° C. in a humidified 5% CO2 incubator. Compounds were transferred to the assay plate from a dose-response plate using a Pintool on a Biomek FXP Laboratory Automation Workstation (Beckman Coulter). Cytotoxicity was determined following 72 hours of incubation using Promega Cell Titer Glo reagent according to the manufacturer's recommendation. Luminescence was measured on an Envision plate reader (Perkin-Elmer).
Compounds were screened in human cancer cell lines and each cell line was cultured in the complete medium recommended by the vendor and seeded in Corning 8804BC white 384-well assay plates at density of 1250 cells per well for MOLM-13 cells. After overnight incubation at 37° C. in a humidified 5% CO2 incubator, cells were treated with compounds in dose-response format using a Pintool on a Biomek FXP Laboratory Automation Workstation (Beckman Coulter). After 72h incubation, cell proliferation was assessed using Cell Titer-Glo (CTG) luminescent cell viability assay (Promega) according to the manufacturer's instruction. Luminescence signal was measured using an Envision plate reader (Perkin-Elmer).

6XHis-CRBN-DDB1 protein = 6XHis-CRBN-DDB1 protein (Homo sapiens (Human), UniProt Q96SW2); assay: CRBN fluorescence polarization assay (competitive, Cy5-O-Len probe); type: binding; settings: 6XHis-CRBN-DDB1 200 nM, Cy5-O-Len probe 30 nM, 1 hour; mean of three determinations; read-out: CRBN FP (IC50)
Protocol: In this competitive fluorescent polarization assay Cy5 conjugated lenalidomide analog (Cy5—O-Len)^1 was used as a fluorescent probe. 6XHis-CRBN-DDB1 protein (200 nM) and Cy5—O-Len probe (30 nM) were combined in 20 mM HEPES pH 7, 150 mM NaCl, 0.005% Tween-20 assay buffer. 20 μL of this assay cocktail was dispensed into wells of Corning 3821 black 384-well plates. Compounds were transferred to the assay plate from a dose-response plate using a Pintool on a Biomek FXP Laboratory Automation Workstation (Beckman Coulter). The plates were incubated in the dark for 1 hour at room temperature and then read on an Envision plate reader (PerkinElmer, Massachusetts, USA). IC50 values were determined using a proprietary software RISE (Robust Investigation of Screening Experiments), developed in house on the Pipeline Pilot platform (Biovia, v. 17.2.0). Data represent the mean of three independent determinations.

| Structure (SMILES) | EC50 (MOLM-13 cells) [nM] | IC50 (6XHis-CRBN-DDB1 protein) [nM] |
| --- | --- | --- |
| O=C1CCC(N2Cc3c(CNC(=O)c4cc(F)ccc4F)cccc3C2=O)C(=O)N1 (stereo not drawn) [Compound 37, N-((2-(2,6-dioxopiperidin-3-yl)-1-oxoisoindolin-4-yl)methyl)-2,5-difluorobenzamide] | > 10000 | 1000 to 10000 |
| O=C1CCC(N2Cc3c(CNC(=O)c4cccc5[nH]ccc45)cccc3C2=O)C(=O)N1 (stereo not drawn) [Compound 39, N-((2-(2,6-dioxopiperidin-3-yl)-1-oxoisoindolin-4-yl)methyl)-1H-indole-4-carboxamide] | > 10000 | < 1000 |
| O=C1CCC(N2Cc3c(CNC(=O)c4ccccc4F)cccc3C2=O)C(=O)N1 (stereo not drawn) [Compound 31, N-((2-(2,6-dioxopiperidin-3-yl)-1-oxoisoindolin-4-yl)methyl)-2-fluorobenzamide] | > 10000 | 1000 to 10000 |
| O=C1CCC(N2Cc3c(CNC(=O)c4cccs4)cccc3C2=O)C(=O)N1 (stereo not drawn) [Compound 27, N-((2-(2,6-dioxopiperidin-3-yl)-1-oxoisoindolin-4-yl)methyl)thiophene-2-carboxamide] | > 10000 | < 1000 |
| O=C1CCC(N2Cc3c(CNC(=O)c4c(F)ccc(F)c4Cl)cccc3C2=O)C(=O)N1 (stereo not drawn) [Compound 33, 2-chloro-N-((2-(2,6-dioxopiperidin-3-yl)-1-oxoisoindolin-4-yl)methyl)-3,6-difluorobenzamide] | > 10000 | < 1000 |
| O=C1CCC(N2Cc3c(CNC(=O)c4ccc(Cl)c(F)c4)cccc3C2=O)C(=O)N1 (stereo not drawn) [Compound 19, 4-chloro-N-((2-(2,6-dioxopiperidin-3-yl)-1-oxoisoindolin-4-yl)methyl)-3-fluorobenzamide] | < 1000 | 1000 to 10000 |
| O=C1CCC(N2Cc3c(CNC(=O)c4ccc5nc[nH]c5c4)cccc3C2=O)C(=O)N1 (stereo not drawn) [Compound 42, N-((2-(2,6-dioxopiperidin-3-yl)-1-oxoisoindolin-4-yl)methyl)-1H-benzo[d]imidazole-6-carboxamide] | 1000 to 10000 | 1000 to 10000 |
| Cc1ccc(C(=O)NCc2cccc3c2CN(C2CCC(=O)NC2=O)C3=O)cc1 (stereo not drawn) [Compound 11, N-((2-(2,6-dioxopiperidin-3-yl)-1-oxoisoindolin-4-yl)methyl)-4-methylbenzamide] | 1000 to 10000 |  |
| O=C1CCC(N2Cc3c(CNC(=O)c4ccc(Cl)cc4Cl)cccc3C2=O)C(=O)N1 (stereo not drawn) [Compound 28, 2,4-dichloro-N-((2-(2,6-dioxopiperidin-3-yl)-1-oxoisoindolin-4-yl)methyl)benzamide] | > 10000 |  |
| O=C1CCC(N2Cc3c(CNC(=O)c4ccccc4Nc4cccc(C(F)(F)F)c4)cccc3C2=O)C(=O)N1 (stereo not drawn) [Compound 43, N-((2-(2,6-dioxopiperidin-3-yl)-1-oxoisoindolin-4-yl)methyl)-2-((3-(trifluoromethyl)phenyl)amino)benzamide] | < 1000 | 1000 to 10000 |
| O=C1CCC(N2Cc3c(CNC(=O)c4ccc(C(F)(F)F)cc4)cccc3C2=O)C(=O)N1 (stereo not drawn) [Compound 13, N-((2-(2,6-dioxopiperidin-3-yl)-1-oxoisoindolin-4-yl)methyl)-4-(trifluoromethyl)benzamide] | < 1000 | 1000 to 10000 |
| O=C1CCC(N2Cc3c(CNC(=O)c4cccnc4)cccc3C2=O)C(=O)N1 (stereo not drawn) [Compound 8, N-((2-(2,6-dioxopiperidin-3-yl)-1-oxoisoindolin-4-yl)methyl)nicotinamide] | > 10000 |  |
| O=C1CCC(N2Cc3c(CNC(=O)c4ccc(Cl)c(Cl)c4)cccc3C2=O)C(=O)N1 (stereo not drawn) [Compound 14, 3,4-dichloro-N-((2-(2,6-dioxopiperidin-3-yl)-1-oxoisoindolin-4-yl)methyl)benzamide] | < 1000 |  |
| O=C1CCC(N2Cc3c(CNC(=O)c4ccccc4)cccc3C2=O)C(=O)N1 (stereo not drawn) [Compound 10, N-((2-(2,6-dioxopiperidin-3-yl)-1-oxoisoindolin-4-yl)methyl)benzamide] | 1000 to 10000 |  |
| O=C1CCC(N2Cc3c(CNC(=O)c4ccc(Cl)c(C(F)(F)F)c4)cccc3C2=O)C(=O)N1 (stereo not drawn) [Compound 21, 4-chloro-N-((2-(2,6-dioxopiperidin-3-yl)-1-oxoisoindolin-4-yl)methyl)-3-(trifluoromethyl)benzamide] | < 1000 |  |
| O=C1CCC(N2Cc3c(CNC(=O)c4ccc(Br)cc4)cccc3C2=O)C(=O)N1 (stereo not drawn) [Compound 18, 4-bromo-N-((2-(2,6-dioxopiperidin-3-yl)-1-oxoisoindolin-4-yl)methyl)benzamide] | < 1000 |  |
| O=C1CCC(N2Cc3c(CNC(=O)c4ccncc4)cccc3C2=O)C(=O)N1 (stereo not drawn) [Compound 6, N-((2-(2,6-dioxopiperidin-3-yl)-1-oxoisoindolin-4-yl)methyl)isonicotinamide] | > 10000 |  |
| O=C1CCC(N2Cc3c(CNC(=O)c4ccco4)cccc3C2=O)C(=O)N1 (stereo not drawn) [Compound 2, N-((2-(2,6-dioxopiperidin-3-yl)-1-oxoisoindolin-4-yl)methyl)furan-2-carboxamide] | > 10000 |  |

Continued, values first:

| EC50 (MOLM-13 cells) [nM] | IC50 (6XHis-CRBN-DDB1 protein) [nM] | Structure (SMILES) |
| --- | --- | --- |
| < 1000 | 1000 to 10000 | O=C1CCC(N2Cc3c(CNC(=O)c4ccc(OC(F)(F)F)cc4)cccc3C2=O)C(=O)N1 (stereo not drawn) [Compound 34, N-((2-(2,6-dioxopiperidin-3-yl)-1-oxoisoindolin-4-yl)methyl)-4-(trifluoromethoxy)benzamide] |
| < 1000 | < 1000 | O=C(Cc1ccc(O)cc1)NCc1cccc2c1CN(C1CCC(=O)NC1=O)C2=O (stereo not drawn) [Compound 40, N-((2-(2,6-dioxopiperidin-3-yl)-1-oxoisoindolin-4-yl)methyl)-2-(4-hydroxyphenyl)acetamide] |
| < 1000 | 1000 to 10000 | O=C1CCC(N2Cc3c(CNC(=O)c4ccc(F)cc4Cl)cccc3C2=O)C(=O)N1 (stereo not drawn) [Compound 17, 2-chloro-N-((2-(2,6-dioxopiperidin-3-yl)-1-oxoisoindolin-4-yl)methyl)-4-fluorobenzamide] |
| < 1000 | 1000 to 10000 | COc1cccc(C(=O)NCc2cccc3c2CN(C2CCC(=O)NC2=O)C3=O)c1 (stereo not drawn) [Compound 1, N-((2-(2,6-dioxopiperidin-3-yl)-1-oxoisoindolin-4-yl)methyl)-3-methoxybenzamide] |
| < 1000 | < 1000 | CCCc1ccc(C(=O)NCc2cccc3c2CN(C2CCC(=O)NC2=O)C3=O)cc1 (stereo not drawn) [Compound 30, N-((2-(2,6-dioxopiperidin-3-yl)-1-oxoisoindolin-4-yl)methyl)-4-propylbenzamide] |
| < 1000 | < 1000 | O=C1CCC(N2Cc3c(CNC(=O)c4cccc(Cl)c4)cccc3C2=O)C(=O)N1 (stereo not drawn) [Compound 3, 3-chloro-N-((2-(2,6-dioxopiperidin-3-yl)-1-oxoisoindolin-4-yl)methyl)benzamide] |
| < 1000 | 1000 to 10000 | O=C1CCC(N2Cc3c(CNC(=O)c4cccc(C(F)(F)F)c4)cccc3C2=O)C(=O)N1 (stereo not drawn) [Compound 12, N-((2-(2,6-dioxopiperidin-3-yl)-1-oxoisoindolin-4-yl)methyl)-3-(trifluoromethyl)benzamide] |
| < 1000 | 1000 to 10000 | O=C1CCC(N2Cc3c(CNC(=O)c4ccc(Cl)cc4)cccc3C2=O)C(=O)N1 (stereo not drawn) [Compound 5, 4-chloro-N-((2-(2,6-dioxopiperidin-3-yl)-1-oxoisoindolin-4-yl)methyl)benzamide] |
| < 1000 | < 1000 | O=C1CCC(N2Cc3c(CNC(=O)c4ccc(-c5ccc(Cl)cc5)o4)cccc3C2=O)C(=O)N1 (stereo not drawn) [Compound 44, 5-(4-chlorophenyl)-N-((2-(2,6-dioxopiperidin-3-yl)-1-oxoisoindolin-4-yl)methyl)furan-2-carboxamide] |

From patent publication US20250122166A1, “SUBSTITUTED N-((2-(2,6-DIOXOPIPERIDIN-3-YL)-1-OXOISOINDOLIN-4-YL)METHYL)BENZAMIDE ANALOGS AS MODULATORS OF CEREBLON PROTEIN” (ST. JUDE CHILDREN'S RESEARCH HOSPITAL, INC., priority 2021, published 2025)
